Measured values taken from the NIST ThermoML archive (doi:10.1016/j.jct.2009.12.001).

Assay: osmotic coefficient (dimensionless); mn = molality of the nth substance listed, in mol/kg
Conditions: 323.15 K, Liquid, Vapor Pressure Osmometer

CCOS(=O)(=O)[O-].CC[n+]1ccccc1 [1-ethylpyridinium ethyl sulfate] + CC(C)O
Conditions | osmotic coefficient
m1 = 0.0578 | 0.948
m1 = 0.1042 | 0.871
m1 = 0.2018 | 0.772
m1 = 0.3112 | 0.695
m1 = 0.3991 | 0.664
m1 = 0.5034 | 0.607
m1 = 0.6891 | 0.564
m1 = 0.9837 | 0.533
m1 = 1.287 | 0.506
m1 = 1.684 | 0.49
m1 = 2.075 | 0.47
m1 = 2.514 | 0.449
m1 = 2.915 | 0.432
m1 = 3.338 | 0.417

CCOS(=O)(=O)[O-].CC[n+]1ccccc1 [1-ethylpyridinium ethyl sulfate] + CCC(C)O
Conditions | osmotic coefficient
m1 = 0.0597 | 0.82
m1 = 0.0791 | 0.784
m1 = 0.1061 | 0.759
m1 = 0.1993 | 0.665
m1 = 0.313 | 0.575
m1 = 0.4056 | 0.515
m1 = 0.5166 | 0.482
m1 = 0.7016 | 0.452
m1 = 1.006 | 0.429
m1 = 1.291 | 0.421
m1 = 1.73 | 0.406
m1 = 2.104 | 0.392
m1 = 2.512 | 0.383
m1 = 2.915 | 0.378
m1 = 3.294 | 0.374

CCOS(=O)(=O)[O-].CC[n+]1ccccc1 [1-ethylpyridinium ethyl sulfate] + CCCCO
Conditions | osmotic coefficient
m1 = 0.0564 | 0.758
m1 = 0.0836 | 0.694
m1 = 0.1146 | 0.652
m1 = 0.2084 | 0.578
m1 = 0.2995 | 0.536
m1 = 0.3996 | 0.508
m1 = 0.5015 | 0.495
m1 = 0.7046 | 0.467
m1 = 0.9934 | 0.44
m1 = 1.289 | 0.429
m1 = 1.688 | 0.418
m1 = 2.094 | 0.402
m1 = 2.493 | 0.388
m1 = 2.886 | 0.38
m1 = 3.301 | 0.374

CCOS(=O)(=O)[O-].CC[n+]1ccccc1 [1-ethylpyridinium ethyl sulfate] + CCCCCO
Conditions | osmotic coefficient
m1 = 0.0539 | 0.761
m1 = 0.0802 | 0.679
m1 = 0.1082 | 0.605
m1 = 0.2024 | 0.521
m1 = 0.3151 | 0.465
m1 = 0.4053 | 0.435
m1 = 0.511 | 0.416
m1 = 0.7996 | 0.376
m1 = 1.105 | 0.359
m1 = 1.414 | 0.355
m1 = 1.719 | 0.347
m1 = 2.23 | 0.335
m1 = 2.724 | 0.332
m1 = 3.206 | 0.33

CCOS(=O)(=O)[O-].CC[n+]1ccccc1 [1-ethylpyridinium ethyl sulfate] + CCCO
Conditions | osmotic coefficient
m1 = 0.0584 | 0.853
m1 = 0.073 | 0.824
m1 = 0.1074 | 0.768
m1 = 0.2108 | 0.684
m1 = 0.3057 | 0.635
m1 = 0.4128 | 0.603
m1 = 0.5105 | 0.586
m1 = 0.7918 | 0.561
m1 = 1.108 | 0.547
m1 = 1.347 | 0.54
m1 = 1.697 | 0.528
m1 = 2.217 | 0.505
m1 = 2.727 | 0.487
m1 = 3.22 | 0.474
